Data reported in patent US20250177363A1, “SUBSTITUTED IMIDAZOPYRIDINYL COMPOUNDS USEFUL AS INHIBITORS OF TLR9” (Bristol-Myers Squibb Company, priority 2022, published 2025).

Legend:
Format in all cases: cell-based
human TLR8 = target: T1, human TLR8 (Homo sapiens, UniProt Q9NR97); test: TLR8 inhibition reporter assay (HEK-Blue, SEAP); conditions: HEK-Blue cells overexpressing human TLR8, ligand R848 14.25 μM, 22 hour incubation
T1 construct: host or cells: HEK-Blue cells
T1 sequence (Q9NR97 27-1041): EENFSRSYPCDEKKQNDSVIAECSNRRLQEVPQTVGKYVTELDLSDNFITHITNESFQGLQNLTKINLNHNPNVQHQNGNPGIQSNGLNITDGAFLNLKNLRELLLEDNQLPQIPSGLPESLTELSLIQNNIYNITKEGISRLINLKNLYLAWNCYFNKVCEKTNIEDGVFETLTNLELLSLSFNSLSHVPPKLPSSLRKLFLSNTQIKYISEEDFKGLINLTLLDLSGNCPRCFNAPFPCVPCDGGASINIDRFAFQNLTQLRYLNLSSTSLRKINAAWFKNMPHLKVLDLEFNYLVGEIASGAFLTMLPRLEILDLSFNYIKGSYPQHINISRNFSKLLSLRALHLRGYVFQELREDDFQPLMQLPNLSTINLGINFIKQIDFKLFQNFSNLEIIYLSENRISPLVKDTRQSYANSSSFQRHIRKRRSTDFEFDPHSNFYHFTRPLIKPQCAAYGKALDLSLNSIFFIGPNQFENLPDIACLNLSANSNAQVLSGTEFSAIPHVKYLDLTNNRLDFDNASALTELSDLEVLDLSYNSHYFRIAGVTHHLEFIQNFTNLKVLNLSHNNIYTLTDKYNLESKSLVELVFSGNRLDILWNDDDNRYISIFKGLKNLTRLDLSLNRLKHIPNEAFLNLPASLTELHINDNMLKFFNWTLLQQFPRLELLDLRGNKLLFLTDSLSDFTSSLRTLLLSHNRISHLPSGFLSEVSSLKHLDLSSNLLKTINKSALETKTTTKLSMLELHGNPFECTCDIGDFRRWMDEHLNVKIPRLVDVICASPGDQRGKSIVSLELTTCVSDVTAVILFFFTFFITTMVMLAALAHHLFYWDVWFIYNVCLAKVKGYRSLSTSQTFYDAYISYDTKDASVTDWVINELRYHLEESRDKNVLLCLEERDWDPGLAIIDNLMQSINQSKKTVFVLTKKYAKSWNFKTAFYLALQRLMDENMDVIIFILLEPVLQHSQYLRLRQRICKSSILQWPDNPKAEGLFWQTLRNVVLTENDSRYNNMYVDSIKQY
Experimental: (§1) TLR7/8/9 Inhibition Reporter Assays
(§2) HEK-Blue™-cells (Invivogen) overexpressing human TLR7. TLR8 or TLR9 receptors were used for screening inhibitors of these receptors using an inducible SEAP (secreted embryonic alkaline phosphatase) reporter gene under the control of the IFN-β minimal promoter fused to five NF-κB and AP-1-binding sites. Cells are seeded into Greiner 384 well plates (15000 cells per well) that are pre dispensed (by ECHO) with testing compounds in DMSO to yield a final dose response concentration range of 0.85 nM-50 μM. After a 60 minute compound pre-treatment in 37 degree incubator, the cells are then stimulated with a TLR7 ligand (gardiquimod at a final concentration of 2.5 μM), TLR8 ligand (R848 at a final concentration of 14.25 μM) or TLR9 ligand (ODN2006 at a final concentration of 200 nM) to activate NF-κB and AP-1 which induce the production of SEAP. After a 22 hour incubation at 37° C., 5% CO2, SEAP levels are determined with the addition of HEK-Blue™ Detection reagent (Invivogen), a cell culture medium that allows for detection of SEAP, according to manufacturer's specifications. The percent inhibition is determined as the % reduction in the HEK-Blue signal present in […].

human TLR7 = target: T2, human TLR7 (Homo sapiens, UniProt Q9NYK1); test: TLR7 inhibition reporter assay (HEK-Blue, SEAP); conditions: HEK-Blue cells overexpressing human TLR7, ligand gardiquimod 2.5 μM, 22 hour incubation
T2 construct: host or cells: HEK-Blue cells
T2 sequence (Q9NYK1 27-1049): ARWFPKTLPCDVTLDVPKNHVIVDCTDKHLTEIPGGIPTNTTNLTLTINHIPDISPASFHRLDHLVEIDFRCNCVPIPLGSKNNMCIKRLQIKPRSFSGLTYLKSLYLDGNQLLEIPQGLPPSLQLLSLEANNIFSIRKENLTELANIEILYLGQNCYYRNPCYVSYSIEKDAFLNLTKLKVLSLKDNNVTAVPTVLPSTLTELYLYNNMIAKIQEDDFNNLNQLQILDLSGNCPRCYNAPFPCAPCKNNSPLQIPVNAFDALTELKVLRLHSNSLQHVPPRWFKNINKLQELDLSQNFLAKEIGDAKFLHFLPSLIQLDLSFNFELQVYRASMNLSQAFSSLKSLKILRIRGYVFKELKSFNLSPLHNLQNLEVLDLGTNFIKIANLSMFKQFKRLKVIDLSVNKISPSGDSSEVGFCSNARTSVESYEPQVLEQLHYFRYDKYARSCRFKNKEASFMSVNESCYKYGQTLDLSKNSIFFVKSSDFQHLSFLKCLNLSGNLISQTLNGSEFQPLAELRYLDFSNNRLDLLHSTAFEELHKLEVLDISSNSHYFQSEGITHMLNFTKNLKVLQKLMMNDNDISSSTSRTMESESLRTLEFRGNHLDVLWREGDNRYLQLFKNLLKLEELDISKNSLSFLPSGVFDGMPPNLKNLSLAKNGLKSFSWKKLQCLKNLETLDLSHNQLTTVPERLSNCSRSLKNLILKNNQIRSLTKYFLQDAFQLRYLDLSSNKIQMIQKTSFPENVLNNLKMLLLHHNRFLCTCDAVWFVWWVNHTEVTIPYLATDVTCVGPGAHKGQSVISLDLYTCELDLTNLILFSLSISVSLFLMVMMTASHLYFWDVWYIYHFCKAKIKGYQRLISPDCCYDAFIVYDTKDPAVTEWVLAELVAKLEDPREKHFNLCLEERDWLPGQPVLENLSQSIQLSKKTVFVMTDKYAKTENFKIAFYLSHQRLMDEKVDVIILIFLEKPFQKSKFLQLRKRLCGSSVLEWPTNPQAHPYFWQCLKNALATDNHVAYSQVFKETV
Experimental: as §1, §2

human TLR9 = target: T3, human TLR9 (Homo sapiens, UniProt Q9NR96); test: TLR9 inhibition reporter assay (HEK-Blue, SEAP); conditions: HEK-Blue cells overexpressing human TLR9, ligand ODN2006 200 nM, 22 hour incubation
T3 construct: host or cells: HEK-Blue cells
T3 sequence (Q9NR96 26-1032): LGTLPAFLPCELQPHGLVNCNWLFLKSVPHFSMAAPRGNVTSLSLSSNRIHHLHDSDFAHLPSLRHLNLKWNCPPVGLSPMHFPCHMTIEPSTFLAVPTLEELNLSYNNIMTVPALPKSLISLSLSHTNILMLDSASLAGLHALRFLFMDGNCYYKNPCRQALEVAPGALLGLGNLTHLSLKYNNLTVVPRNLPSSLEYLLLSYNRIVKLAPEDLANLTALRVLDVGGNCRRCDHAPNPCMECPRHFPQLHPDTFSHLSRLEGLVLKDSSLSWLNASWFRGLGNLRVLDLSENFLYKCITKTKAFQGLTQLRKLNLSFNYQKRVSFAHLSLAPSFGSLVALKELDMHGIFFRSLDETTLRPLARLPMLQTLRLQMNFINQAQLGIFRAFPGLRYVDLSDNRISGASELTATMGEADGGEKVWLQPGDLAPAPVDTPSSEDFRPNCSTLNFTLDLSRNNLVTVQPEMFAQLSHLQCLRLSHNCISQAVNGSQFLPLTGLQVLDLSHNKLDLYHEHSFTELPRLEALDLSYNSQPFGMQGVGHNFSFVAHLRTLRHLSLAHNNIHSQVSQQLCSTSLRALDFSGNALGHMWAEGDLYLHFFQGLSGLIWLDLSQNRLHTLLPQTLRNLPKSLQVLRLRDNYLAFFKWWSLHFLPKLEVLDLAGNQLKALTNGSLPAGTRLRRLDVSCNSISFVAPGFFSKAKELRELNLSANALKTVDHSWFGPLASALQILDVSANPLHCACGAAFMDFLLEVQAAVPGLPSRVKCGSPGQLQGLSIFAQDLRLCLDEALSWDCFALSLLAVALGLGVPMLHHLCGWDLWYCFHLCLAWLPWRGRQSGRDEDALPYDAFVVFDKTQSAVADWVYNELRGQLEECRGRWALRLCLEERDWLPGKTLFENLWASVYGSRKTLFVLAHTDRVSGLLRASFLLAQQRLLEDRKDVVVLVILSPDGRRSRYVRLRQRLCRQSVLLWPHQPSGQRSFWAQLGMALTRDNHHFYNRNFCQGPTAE
Experimental: as §1, §2

Cc1cc(C2CCN(C3CC4CCC(C3)N4C(C)C)CC2)nc2c1nc(-c1ccc(S(C)(=O)=O)cc1)n2C (single isomer, unassigned) [Example 26, 5-(1-(8-isopropyl-8-azabicyclo[3.2.1]octan-3-yl)piperidin-4-yl)-3,7-dimethyl-2-(4-(methylsulfonyl)phenyl)-3H-imidazo[4,5-b]pyridine] was tested, and the IC50 (human TLR8) was over 50000 nM, the IC50 (human TLR7) was 10000 nM and the IC50 (human TLR9) was 58 nM.

Cc1cc(C2CCN(C3CC4CCC(C3)N4C(C)C)CC2)nc2c1nc(-c1ccc(S(C)(=O)=O)cc1)n2C (single isomer, unassigned) [Example 27, 5-(1-(8-isopropyl-8-azabicyclo[3.2.1]octan-3-yl)piperidin-4-yl)-3,7-dimethyl-2-(4-(methylsulfonyl)phenyl)-3H-imidazo[4,5-b]pyridine] showed an IC50 (human TLR8) of 24000 nM, an IC50 (human TLR7) of 3700 nM and an IC50 (human TLR9) of 300 nM.

Work on Cc1cc(C2CCN(C3CC4CCC(C3)N4CC(C)C)CC2)nc2c1nc(-c1ccc(S(C)(=O)=O)cc1)n2C (single isomer, unassigned) [Example 28, 5-(1-(8-isobutyl-8-azabicyclo[3.2.1]octan-3-yl)piperidin-4-yl)-3,7-dimethyl-2-(4-(methylsulfonyl)phenyl)-3H-imidazo[4,5-b]pyridine] yielded an IC50 (human TLR8) of over 50000 nM, an IC50 (human TLR7) of 1400 nM and an IC50 (human TLR9) of 79 nM.

In the case of Cc1cc(C2CCN(C3CC4CCC(C3)N4CC(C)C)CC2)nc2c1nc(-c1ccc(S(C)(=O)=O)cc1)n2C (single isomer, unassigned) [Example 29, 5-(1-(8-isobutyl-8-azabicyclo[3.2.1]octan-3-yl)piperidin-4-yl)-3,7-dimethyl-2-(4-(methylsulfonyl)phenyl)-3H-imidazo[4,5-b]pyridine], the IC50 (human TLR9) is reported as 550 nM.

For Cc1cc(-c2ccc(CN3CC4(C3)CN(CC(C)C)C4)cc2)nc2c1nc(-c1ccc(S(C)(=O)=O)cc1)n2C1CC1 [Example 4, 3-cyclopropyl-5-(4-((6-isobutyl-2,6-diazaspiro[3.3]heptan-2-yl)methyl)phenyl)-7-methyl-2-(4-(methylsulfonyl)phenyl)-3H-imidazo[4,5-b]pyridine], the IC50 (human TLR7) was 2600 nM and the IC50 (human TLR9) was 71 nM.

Cc1cc(-c2ccc(CN3CC4(C3)CN(C3COC3)C4)cc2)nc2c1nc(-c1ccc(S(C)(=O)=O)cc1)n2C1CC1 [Example 6, 3-cyclopropyl-7-methyl-2-(4-(methylsulfonyl)phenyl)-5-(4-((6-(oxetan-3-yl)-2,6-diazaspiro[3.3]heptan-2-yl)methyl)phenyl)-3H-imidazo[4,5-b]pyridine] showed an IC50 (human TLR7) of 15000 nM and an IC50 (human TLR9) of 730 nM.

Work on COc1ccc(-c2nc3ncc(C4CCN(C5CCN(CC(C)C)CC5)CC4)cc3[nH]2)cc1OC [Example 12, 2-(3,4-dimethoxyphenyl)-6-(1′-isobutyl-[1,4′-bipiperidin]-4-yl)-1H-imidazo[4,5-b]pyridine] yielded an IC50 (human TLR9) of 74 nM.

COc1cc(-c2nc3c(C)cc(-c4ccc(N5CCN(C(C)C)CC5)cc4)nc3n2C)cn2ncnc12 [Example 45, 5-(4-(4-isopropylpiperazin-1-yl)phenyl)-2-(8-methoxy-[1,2,4]triazolo[1,5-a]pyridin-6-yl)-3,7-dimethyl-3H-imidazo[4,5-b]pyridine] was tested, and the IC50 (human TLR7) was 5800 nM and the IC50 (human TLR9) was 140 nM.

Compound COc1ccc(-c2nc3ncc(-c4ccc(N5CCN(C(C)C)CC5)cc4)cc3n2C2CC2)cc1OC [Example 50, 1-cyclopropyl-2-(3,4-dimethoxyphenyl)-6-(4-(4-isopropylpiperazin-1-yl)phenyl)-1H-imidazo[4,5-b]pyridine] has an IC50 (human TLR8) of 3400 nM and an IC50 (human TLR9) of 320 nM.

CS(=O)(=O)c1ccc(-c2nc3ccc(-c4ccc(N5CCN(CCCN6CCOCC6)CC5)cc4)nc3n2C2CC2)cc1 [Example 56, 4-(3-(4-(4-(3-cyclopropyl-2-(4-(methylsulfonyl)phenyl)-3H-imidazo[4,5-b]pyridin-5-yl)phenyl)piperazin-1-yl)propyl) morpholine] was tested, and the IC50 (human TLR7) was over 50000 nM and the IC50 (human TLR9) was 280 nM.

COc1ccc(-c2nc3c(C)cc(-c4ccc(N5CC6(C5)CN(C(C)C)C6)cc4)nc3n2C)cc1OC [Example 59, 2-(3,4-dimethoxyphenyl)-5-(4-(6-isopropyl-2,6-diazaspiro[3.3]heptan-2-yl)phenyl)-3,7-dimethyl-3H-imidazo[4,5-b]pyridine] was tested, and the IC50 (human TLR7) was 1100 nM and the IC50 (human TLR9) was 860 nM.
